Experimental data published in patent US20050256179A1, “Selective pharmacologic inhibition of protein trafficking and related methods of treating human diseases” (priority 2003, published 2005).

How the values were obtained:
Assay type in all cases: cell-based
GS28 mRNA = GS28 mRNA by RT-PCR in human PBL; settings: 3 to 16 hours following addition of drug
Experimental: Human buffy coats were purchased from the San Diego Blood Bank. Buffy Coat was purified of red blood cells using Histopaque-1077 following Sigma Diagnostic protocol. Lymphocytes (20 million) were then cultured in 75 cm2 flasks in cDMEM (+/−stimulus & AVP 893) for either 4 or 24 hrs. Cells were harvested and reconstituted in a Guanidine/Phenol solution essentially as described by Maniatis. The aqueous layer was removed and washed with Guanidine solution and finally 70% EtOH. RNA purity was checked by spectrophotometer. RT-PCR (36 cycles) was performed following the RT-PCR One-Step protocol (Qiagen). Similar results were obtained when testing mRNA samples obtained from other cell sources (not shown).

Rab1a = Rab1a expression by Western blotting; settings: 3T3 cells
Experimental: Protein samples (in sample buffer) were boiled for 1-3 minutes and put on ice. Same amount of protein were loaded on the NuPage gel (InVitrogen). After the electrophoresis was complete, proteins were transferred from the gel to a PVDF membrane using the electro-blotting apparatus from InVitrogen; the voltage was set to 25 for 2-3 hr. Block non-specific binding by incubating membrane with 5% milk (in PBS, 0.1% tween 20) for at least 30 min at room temperature or overnight at 4° C. The blocked membrane was incubated with primary antibody (See TABLE 2) diluted in 5% milk for 1 hour at room temperature. Optimal antibody dilution depends on the company, the amount of protein. Dilutions of 1:1000 were generally used for the primary antibodies from Santa Cruz. The membrane was washed with PBS, 0.1% tween 3-4 times 5 mins. The membrane was incubated for 30-60 minutes at room temperature with horseradish peroxidase (HRP) conjugated secondary antibody diluted in 5% milk. We usually used 1:4000 dilution for the secondary antibody from Santa Cruz. The membrane was washed 3-4 times with PBS, 0.1% tween, each time 15 minutes. The detection solutions A and B were mixed in a ratio 40:1 and Pipetted onto the membrane, and incubated for 5 min at RT. A sheet of Hyper film ECL was placed on the top of the membrane in the dark and exposed for 1 min, or adjust accordingly. […]

calnexin = assay: Calnexin expression by Western blotting (control)
Experimental: The culture medium was removed by vacuuming (for attached cells) or by low speed centrifugation (for suspension cells) for 5-7 minutes at room temperature. The cells were wasedh twith PBS, spun at 1200 rpm and the cell pellets were kept on ice. 300 μl/2.0×10^7 cells of ice cold lysis buffer was added with freshly added protease inhibitors. Cell pellets were gently resuspended and incubated on ice for at least 30 min, vortexed a few times during incubation. Cell lysate was spun at 14,000 rpm for 2-5 min at 4° C. The supernatant was transferred to a new microfuge tube and the pellet was discarded. An aliquot of sample was mixed with an equal volume of 2× sample buffer (InVitrogen), and stored at −80° C. Protein concentration was determined by using “BCA protein assay reagent kit” from Pierce.
Protein samples (in sample buffer) were boiled for 1-3 minutes and put on ice. Same amount of protein were loaded on the NuPage gel (InVitrogen). […]
To further examine the putative protein trafficking effects of AVP 893, other proteins in this pathway were tested in vitro in B16 and other cell lines. […] Other cell lines were tested for their expression of GS28 and nicastrin and found to respond similarly to drug, although quantitative differences were evident. […]

B16F10 cells = assay: Density gradient centrifugation, intracellular protein distribution; settings: B16 cells, 16 hours drug
Experimental: To test this possibility directly, cells were cultured with and without drug for 16-20 hours, harvested, lysed, and layered on top of a gradient of varying density iodixanol-containing fractions (2.5-30%). The gradients were centrifuged for 2 to 18 hours at 56K x g, collected, and tested for resident proteins via Western blot. Fractions were probed with antibodies specific for calnexin (ER-specific marker), γ-adaptin (golgi), and Rab5a (vesicles). […] FIGS. 34 and 35 also show the unfractionated levels of Rab6 and Rab1B, respectively, that were obtained prior to density gradient centrifugation. No difference in the expression of these 3 marker proteins was observed between the control and drug-treated cells.
B16F10 cells were seeded into 175 cm2 flasks one day prior to drug application. On the subsequent day, fresh media +/−drug was applied to the cultures. 16 hours later, the cells were washed with cold Dulbecco's PBS, then harvested in ice-cold homogenization buffer: 130 mM KCl, 25 mM NaCl, 1 mM EGTA, 25 mM Tris pH7.4, plus 15 ul protease inhibitor per 5 mL buffer. 1 mL of buffer was used per flask, and the cells were scrapped off into 14 mL round-bottom culture tubes and kept on ice. The harvested cells were then homogenized with a tissue homogenizer (Polytron PT10/35), transferred into 2 mL centrifuge tubes, and spun at 1,000 rpm for 8 min at 4° C. […]

## O=C(Nc1ccc(-c2nc3cc(NC(=O)C4CCCCC4)ccc3[nH]2)cc1)C1CCCCC1 [AVP 893]
GS28 mRNA
  level of GS28 mRNA: did not affect the level of GS28 mRNA
Rab1a
  Rab1a expression: mild response
calnexin; drug-treated cell lines
  levels of calnexin: unchanged
calnexin; stimulated BALB/c spleen cells, 100 ng/ml, 20 hours
  calnexin expression: minimally affected
B16F10 cells
  distribution of Rab 1b and Rab 6 in gradient fractions: retained in the ER at the expense of the golgi compartment
